Among the data in PMC12700101 (2025) are Tm and Kd values, retold here.

Experiment [1] deals with Dopamine MAB FAM–Dab (DNA, aptamer, dabcyl-5-methyl-dC at 41 (3' end)) ACGCCAGTTTGAAGGTTCGTTCGCAGGTGTGGAGTGACGTC
Nature of the experiment: fluorescence melting. Conditions: 1x PBS, 2 mM MgCl2; derived from two Tm (41.7 ± 0.2, 36.9 ± 0.1); 50 µM dopamine, pH 8.0.

The test system of experiment [2] is Dopamine MAB Cy3–BHQ-2 (DNA, aptamer) ACGCCAGTTTGAAGGTTCGTTCGCAGGTGTGGAGTGACGT
Nature of the experiment: fluorescence melting. The note with it: 1x PBS, 2 mM MgCl2; derived from two Tm (49.4 ± 0.8, 53.3 ± 0.8); 50 µM dopamine, pH 8.0.

Experiment [3] has as its system Dopamine DBS Cy3/BHQ-1 (term.) (DNA, aptamer) AAATACAACAAGAAAAAACTCTCGGGACGACGCCAGTTTGAAGGTTCGTTCGCAGGTGTGGAGTGACGTCGTCCC
Nature of the experiment: fluorescence melting. The note with it: 1x PBS, 2 mM MgCl2; pH 8.0; 50 µM dopamine; derived from two Tm (51.2, 50.6); displacement strand 1:4.

Experiment [4] deals with Dopamine DBS Cy3/BHQ-1 (P3) (DNA, aptamer) AAATACAACAAGAAAAAACTCTCGGGACGACGCCAGTTTGAAGGTTCGTTCGCAGGTGTGGAGTGACGTCGTCCC
Nature of the experiment: fluorescence melting. Conditions: 1x PBS, 2 mM MgCl2; pH 8.0; 50 µM dopamine; derived from two Tm (50.3, 50.1); displacement strand 1:4.

Experiment [5] deals with Dopamine DBS FAM(+T)/BHQ-1 (int.) (DNA, aptamer, 6-FAM-modified dT (click, i6-FAMK) at 33) AAATACAACAAGAAAAAACTCTCGGGACGACGTCCAGTTTGAAGGTTCGTTCGCAGGTGTGGAGTGACGTCGTCCC
Nature of the experiment: fluorescence melting. Conditions: 1x PBS, 2 mM MgCl2; pH 8.0; 50 µM dopamine; derived from two Tm (49.1, 49.3); displacement strand 1:4.

Experiment [6] relates to Dopamine DBS FAM(+T)/BHQ-1 (term.) (DNA, aptamer, 6-FAM-modified dT (click, i6-FAMK) at 33) AAATACAACAAGAAAAAACTCTCGGGACGACGTCCAGTTTGAAGGTTCGTTCGCAGGTGTGGAGTGACGTCGTCCC
Nature of the experiment: fluorescence melting. Conditions: 1x PBS, 2 mM MgCl2; pH 8.0; 50 µM dopamine; derived from two Tm (48.4, 48.3); displacement strand 1:4.

Experiment [7] has as its system Dopamine DBS Cy3–BHQ-1 (Position 1/Adjacent) (DNA, aptamer) AAATACAACAAGAAAAAACTCTCGGGACGACGACCAGTTTGAAGGTTCGTTCGCAGGTGTGGAGTGACGTCGTCCC
Nature of the experiment: fluorescence strand-displacement titration. Conditions: 1x PBS, 2 mM MgCl2; apparent; pH 8.0, 25 °C; displaced CGTCGTCCCCTCTTCACATATCTATTTTTTCTTGTTGTATTT, 4 eq, 5'-BHQ-1.

In experiment [8] the test system is Dopamine DBS FAM(+T)–BHQ-1 (Position 1) (DNA, aptamer, 6-FAM-dT (azide click) at 33) AAATACAACAAGAAAAAACTCTCGGGACGACGTACCAGTTTGAAGGTTCGTTCGCAGGTGTGGAGTGACGTCGTCCC
Nature of the experiment: fluorescence strand-displacement titration. The note with it: 1x PBS, 2 mM MgCl2; apparent; pH 8.0, 25 °C; displaced 42-nt 5'-BHQ-1 strand, 4 eq.

Experiment [9] concerns Dopamine DBS BHQ-1–Cy3 (DNA, aptamer) AAATACAACAAGAAAAAACTCTCGGGACGACGACCAGTTTGAAGGTTCGTTCGCAGGTGTGGAGTGACGTCGTCCC
Nature of the experiment: fluorescence strand-displacement titration. Conditions: 1x PBS, 2 mM MgCl2; apparent; pH 8.0, 25 °C; displaced 42-nt 5'-Cy3 strand, 1 eq.

Experiment [10] concerns Dopamine DBS Cy3–IABkFQ (DNA, aptamer) AAATACAACAAGAAAAAACTCTCGGGACGACGACCAGTTTGAAGGTTCGTTCGCAGGTGTGGAGTGACGTCGTCCC
Nature of the experiment: fluorescence strand-displacement titration. Conditions: 1x PBS, 2 mM MgCl2; apparent; pH 8.0, 25 °C; displaced 42-nt 5'-IABkFQ strand, 4 eq.

The test system of experiment [11] is Dopamine DBS Cy3–BHQ-1 (Int.) (DNA, aptamer) AAATACAACAAGAAAAAACTCTCGGGACGACGACCAGTTTGAAGGTTCGTTCGCAGGTGTGGAGTGACGTCGTCCC
Nature of the experiment: fluorescence strand-displacement titration. The note with it: 1x PBS, 2 mM MgCl2; apparent; pH 8.0, 25 °C; displaced 42-nt strand, internal BHQ-1, 4 eq.

Experiment [12] has as its system Dopamine DBS Cy3(+T)–BHQ-1 Terminal (DNA, aptamer) AAATACAACAAGAAAAAACTCTCGGGACGACGTACCAGTTTGAAGGTTCGTTCGCAGGTGTGGAGTGACGTCGTCCC
Nature of the experiment: fluorescence strand-displacement titration. Conditions: 1x PBS, 2 mM MgCl2; apparent; pH 8.0, 25 °C; displaced 43-nt strand, 5'-BHQ-1 plus T, 4 eq.

Experiment [13] deals with Dopamine DBS Cy3(+T)–BHQ-1 Internal (DNA, aptamer) AAATACAACAAGAAAAAACTCTCGGGACGACGTACCAGTTTGAAGGTTCGTTCGCAGGTGTGGAGTGACGTCGTCCC
Nature of the experiment: fluorescence strand-displacement titration. The note with it: 1x PBS, 2 mM MgCl2; apparent; pH 8.0, 25 °C; displaced 42-nt strand, internal BHQ-1, 4 eq.

In experiment [14] the test system is Dopamine MAB FAM–Dab (DNA, aptamer, dabcyl-5-methyl-dC at 41 (3' end)) ACGCCAGTTTGAAGGTTCGTTCGCAGGTGTGGAGTGACGTC
Nature of the experiment: fluorescence quenching titration (molecular aptamer beacon). Conditions: 1x PBS, 2 mM MgCl2; apparent; pH 8.0, 25 °C.

For experiment [15], the system named is Dopamine MAB Cy3–BHQ-2 (DNA, aptamer) ACGCCAGTTTGAAGGTTCGTTCGCAGGTGTGGAGTGACGT
Described as above. Conditions: 1x PBS, 2 mM MgCl2; apparent; pH 8.0, 25 °C.

For `NCCc1ccc(O)c(O)c1`, the Tm in experiment [1] was -4.8 °C; in [2] it was 3.9 °C; in [3], -0.6 °C; in experiment [4], -0.2 °C; in experiment [5] it was 0.2 °C; in [6], -0.1 °C. For the same compound, the Kd came to 229.9 ± 22.0 µM in experiment [7]; 6.1 ± 0.7 µM in experiment [8]; 95.6 ± 6.7 µM in [9]; 85.0 ± 15.6 µM in experiment [10]; 34.0 ± 3.3 µM in experiment [11]; 40.1 ± 5.0 µM in [12]. In addition, the values for the Kd in [13], in [14] and in [15] were 17.3 ± 1.3 µM, 3.2 ± 0.2 µM and 12.4 ± 2.0 µM, respectively.
